# ChEMBL document CHEMBL1201862, “PubChem BioAssay data set” (2004)
#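 Test compounds were applied to cells in 96-well plates for 48 hours at 5 doses. GI50 = concentration required for 50% inhibition of growth.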 Active and inactive are the calls of the source. No stated cut-off is given here; in the data, active = GI50 up to about 1.1 µM and inactive = higher.
# Legend:
# Experiment in all cases: NCI-60 cell line screen, 48 h
# EKVX = test system: EKVX
# ACHN = test system: ACHN
# HL-60 = test system: HL-60
# SK-MEL-5 = test system: SK-MEL-5
# OVCAR-8 = test system: OVCAR-8
# SN12C = test system: SN12C
# IGROV-1 = test system: IGROV-1
# HOP-62 = test system: HOP-62
# SK-OV-3 = test system: SK-OV-3
# DMS-114 = test system: DMS-114
# RXF 393 = test system: RXF 393
# NCI-H522 = test system: NCI-H522
# HOP-92 = test system: HOP-92
# UO-31 = test system: UO-31
# TK-10 = test system: TK-10
# LOX IMVI = test system: LOX IMVI
# M14 = test system: M14
# K562 = test system: K562
# MDA-N = test system: MDA-N
# NCI/ADR-RES = test system: NCI/ADR-RES
SMILES,GI50 (EKVX),GI50 (ACHN),GI50 (HL-60),GI50 (SK-MEL-5),GI50 (OVCAR-8),GI50 (SN12C),GI50 (IGROV-1),GI50 (HOP-62),GI50 (SK-OV-3),GI50 (DMS-114),GI50 (RXF 393),GI50 (NCI-H522),GI50 (HOP-92),GI50 (UO-31),GI50 (TK-10),GI50 (LOX IMVI),GI50 (M14),GI50 (K562),GI50 (MDA-N),GI50 (NCI/ADR-RES)
Cc1cccc(NC(=O)C(=O)C2C(=O)NC(=O)NC2=O)c1C,> 100 µM (inactive),> 100 µM (inactive),> 100 µM (inactive),> 100 µM (inactive),> 100 µM (inactive),> 100 µM (inactive),> 100 µM (inactive),> 100 µM (inactive),> 100 µM (inactive),> 100 µM (inactive),> 100 µM (inactive),> 100 µM (inactive),> 100 µM (inactive),> 100 µM (inactive),> 100 µM (inactive),> 100 µM (inactive),> 100 µM (inactive),> 100 µM (inactive),–,–
CCN(CC)CCNc1ccc(C)c2sc3ccc(O)cc3c(=O)c12,10.2 µM (inactive),0.201 µM (active),0.106 µM (active),0.851 µM (active),1.37 µM (inactive),0.594 µM (active),1.23 µM (inactive),0.274 µM (active),1.52 µM (inactive),0.982 µM (active),2.51 µM (inactive),1.28 µM (inactive),1.87 µM (inactive),1.14 µM (inactive),3.4 µM (inactive),0.711 µM (active),1.19 µM (inactive),0.832 µM (active),–,–
COC(=O)c1ccc(/C=C/S(=O)(=O)c2ccccc2)cc1,> 100 µM (inactive),> 100 µM (inactive),> 100 µM (inactive),> 100 µM (inactive),> 100 µM (inactive),> 100 µM (inactive),> 100 µM (inactive),> 100 µM (inactive),> 100 µM (inactive),> 100 µM (inactive),> 100 µM (inactive),83.9 µM (inactive),> 100 µM (inactive),> 100 µM (inactive),> 100 µM (inactive),> 100 µM (inactive),> 100 µM (inactive),> 100 µM (inactive),–,–
O=C1c2ccccc2C(=O)N1CCN(CCN1C(=O)c2ccccc2C1=O)Cn1cccn1,> 100 µM (inactive),> 100 µM (inactive),27.4 µM (inactive),> 100 µM (inactive),> 100 µM (inactive),> 100 µM (inactive),–,> 100 µM (inactive),> 100 µM (inactive),19.5 µM (inactive),> 100 µM (inactive),> 100 µM (inactive),> 100 µM (inactive),> 100 µM (inactive),> 100 µM (inactive),> 100 µM (inactive),> 100 µM (inactive),33.4 µM (inactive),–,–
CC(=O)Nc1ccc(C2C(C(=O)Nc3ccccc3C)=C(C)NC(C)=C2C(=O)Nc2ccccc2C)cc1,> 100 µM (inactive),> 100 µM (inactive),39.5 µM (inactive),> 100 µM (inactive),> 92 µM (inactive),> 100 µM (inactive),> 100 µM (inactive),> 100 µM (inactive),> 100 µM (inactive),> 100 µM (inactive),> 100 µM (inactive),> 100 µM (inactive),> 100 µM (inactive),> 100 µM (inactive),> 100 µM (inactive),> 100 µM (inactive),> 100 µM (inactive),57.5 µM (inactive),–,–
c1cc2c(ncc3cscc32)s1,> 100 µM (inactive),> 100 µM (inactive),> 100 µM (inactive),> 100 µM (inactive),> 100 µM (inactive),> 100 µM (inactive),> 31.6 µM (inactive),> 100 µM (inactive),> 10 µM (inactive),> 100 µM (inactive),> 79.3 µM (inactive),> 100 µM (inactive),> 100 µM (inactive),> 70.6 µM (inactive),> 100 µM (inactive),> 49.5 µM (inactive),> 100 µM (inactive),> 100 µM (inactive),> 100 µM (inactive),> 100 µM (inactive)
CCOC(=O)CCC(NC(=O)c1ccc(NCc2ccc3nc(-c4ccccc4)c(Cl)nc3c2)cc1)C(=O)OCC (configuration not stated),46.3 µM (inactive),37.9 µM (inactive),17.4 µM (inactive),11.3 µM (inactive),–,41.1 µM (inactive),27.9 µM (inactive),> 100 µM (inactive),> 100 µM (inactive),22.4 µM (inactive),48.9 µM (inactive),19.5 µM (inactive),9.95 µM (inactive),22.9 µM (inactive),83.9 µM (inactive),26.1 µM (inactive),16.4 µM (inactive),6.19 µM (inactive),–,–
NC(=O)C(=O)N/N=C(\CC1(O)C(=O)Nc2ccccc21)c1ccc2ccccc2c1 (configuration not stated),33.1 µM (inactive),32.9 µM (inactive),16.6 µM (inactive),32.3 µM (inactive),56 µM (inactive),26.3 µM (inactive),40.5 µM (inactive),51.2 µM (inactive),46.9 µM (inactive),21.3 µM (inactive),24.8 µM (inactive),18.7 µM (inactive),39 µM (inactive),40.1 µM (inactive),50.2 µM (inactive),30.3 µM (inactive),32.7 µM (inactive),23.1 µM (inactive),–,–
COC(=O)C1[C@@H](C(=O)OC)C12C=Cc1ccccc1C=C2 (some centres not stated),> 100 µM (inactive),> 100 µM (inactive),> 100 µM (inactive),> 100 µM (inactive),> 100 µM (inactive),> 100 µM (inactive),> 100 µM (inactive),> 100 µM (inactive),> 100 µM (inactive),> 100 µM (inactive),> 100 µM (inactive),> 100 µM (inactive),> 100 µM (inactive),> 100 µM (inactive),> 100 µM (inactive),> 100 µM (inactive),> 100 µM (inactive),> 100 µM (inactive),–,–
